Test results reported in publication PMC11500415, “Chemical inhibition of stomatal differentiation by perturbation of the master-regulatory bHLH heterodimer via an ACT-Like domain” (Nature Communications, 2024).
Values joined by “and” are separate entries in the source; they are usually repeats but may differ in a detail not shown here. Equal entries are not always repeated. Where two headings read alike, the source gives them in different places.

Target: T1, FAMA (Arabidopsis thaliana, UniProt Q56YJ8)
T1 construct: ΔNFAMA (190-414); made in house; host or cells: E. coli BL21
Assay: BLI direct binding
Parameters: species or system A. thaliana
Excerpt: A. thaliana SCRM (1-494), ΔNSPCH (98-364), MUTE (1-202), ΔNFAMA (190-414), MUTEΔC (1-114), MUTER133A_R134A, MUTEE162A_E163A, MUTER133A_R134A_E162A_E163A, SCRM-ACTL (405-494), MUTE-ACTL (114-202), SPCH-ACTL (285-364), FAMA-ACTL (306-414), MUTE_ACTLR133A_R134A, MUTE_ACTLE162A_E163A, MUTE_ACTLR133A_R134A_E162A_E163A were cloned into pGEX-4T-1 vector with an N-terminal GST tag and a thrombin cleavage sequence. For protein expression, the constructs were transformed into E. coli strain BL21. For each transformant, a single colony was selected and incubated in 10 ml LB liquid media. The overnight-incubated E. coli suspensions were transferred to 1 L LB medium and incubated at 37 °C for around 2 h until the OD600 reached 0.4–0.6. The isopropyl β-D-1-thiogalactopyranoside ([…] of final concentration) was added to the cultures and the strains were incubated at 22 °C for a further 18 h. GST-fused proteins were purified using glutathione agarose resin. The soluble portion of the cell lysate was loaded onto a GST-Sepharose column. Nonspecifically bound proteins were removed by washing the column with 20 mM Tris pH 8.0, 200 mM NaCl. The bound GST-fused protein was eluted with 10 mm glutathione and 20 mM Tris pH 8.0, 200 mM NaCl. The GST-fused proteins were exchanged with phosphate-buffered saline buffer, and then the solution was treated with 50 μg of thrombin for 10–12 h at 16 ^οC. The GST portion of the protein was cleaved during thrombin digestion, and then the whole solution was reloaded onto the glutathione S-transferase column to obtain pure protein. The purified proteins were further purified by gel filtration on a Superdex-200 (GE) column using fast protein liquid chromatography and phosphate buffer (pH 7.2) as the eluent. The purity of the protein was checked by SDS-PAGE. For detailed lists of oligo DNA and plasmid information, see Supplementary Tables 5, 6, respectively.
The binding affinities of SCRM to MUTE / MUTER133A_R134A / MUTEE162A_E163A / MUTER133A_R134A_E162A_E163A in presence and absence of Stomidazolone (3) and its analogues (AYSJ1059 (5) and AYSJ1061 (6)), and Stomidazolone / AYSJ1059 / AYSJ1061 interactions with GST-tagged SCRM, MUTE, SPCH, FAMA, MUTE ΔACTL, MUTE_ACTL, SCRM_ACTL, SPCH_ACTL and FAMA_ACTL, MUTER133A_134A, MUTEE162A_E163A, MUTER133A_R134A_E162A_E163A were measured using the Octet Red96 system (ForteBio, Pall Life Sciences) following the manufacturer’s protocols. The optical probes coated with anti-GST were first loaded with 500 nM GST tagged proteins before kinetic binding analyses. The experiment was performed in 96-well plates maintained at 30 °C. Each well was loaded with 200 μL reaction volume for the experiment. The binding buffer used in these experiments contained 1× PBS supplemented with 2% DMSO, 0.02% Tween20. The concentrations of the Stomidazolone as the analyte in the binding buffer were 100, 50, 25, 12.5, 6.25, 3.12, and 1.56 μM. There was no binding of the analytes to the unloaded probes as shown by the control wells. Binding kinetics to all seven concentrations of the analytes were measured simultaneously using default parameters on the instrument. The data were analyzed using the Octet data analysis software. The association and dissociation curves were fit with the 1:1 homogeneous ligand model. The kobs (observed rate constant) values were used to calculate Kd, with steady-state analysis of the direct binding. See Supplementary Table 3 for details.

[1] = FAMA loaded on Anti-GST sensor, fit per sensor, Stomid Conc. (mM) 200-3.12, rep-1, rep-2
[2] = FAMA, Conc. (mM) 3.12, rep-1, rep-2
[3] = FAMA, Conc. (mM) 6.25, rep-1, rep-2
[4] = FAMA, Conc. (mM) 12.5, rep-1, rep-2
[5] = FAMA, Conc. (mM) 25, rep-1, rep-2
[6] = FAMA, Conc. (mM) 50, rep-1, rep-2
[7] = FAMA, Conc. (mM) 100, rep-1, rep-2
[8] = FAMA, Conc. (mM) 200, rep-1, rep-2

T1 sequence (Q56YJ8 190-414): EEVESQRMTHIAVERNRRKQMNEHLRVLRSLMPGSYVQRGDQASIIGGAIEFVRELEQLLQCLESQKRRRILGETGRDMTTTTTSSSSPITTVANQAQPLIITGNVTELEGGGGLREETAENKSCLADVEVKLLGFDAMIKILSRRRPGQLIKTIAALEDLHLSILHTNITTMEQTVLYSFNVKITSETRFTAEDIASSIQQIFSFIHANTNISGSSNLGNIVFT

O=C1C(c2ccccc2)=NC(NS(=O)(=O)c2ccccc2)(c2ccccc2)N1S(=O)(=O)c1ccccc1 (stereo not shown) [Stomidazolone]
Kd (BLI steady state, FAMA, read-out: KD (SS)): 0.0782 ± 0.0065 mM | kdis [1]: 0.177 s⁻¹ and 0.176 s⁻¹ and 0.175 s⁻¹ and 0.178 s⁻¹ and 0.171 s⁻¹ and 0.18 s⁻¹ | kon [1]: 2080 M⁻¹ s⁻¹ | Kd (FAMA loaded on Anti-GST sensor, fit per sensor, Stomid Conc. (mM) 200-3.12, rep-1, rep-2, read-out: KD): 0.0867 mM and 0.0859 mM and 0.0882 mM and 0.0891 mM and 0.0863 mM and 0.0866 mM and 0.0851 mM and 0.0817 mM and 0.0856 mM and 0.0903 mM and 0.0845 mM | RMax [2]: 0.095 and 0.0512 | Req/Rmax(%) [2]: 100% | Response [2]: 0.0912 and 0.0512 | kobs [2]: 0.00577 s⁻¹ and 0.0035 s⁻¹ | RMax [3]: 0.108 and 0.0812 | Req/Rmax(%) [3]: 97% and 100% | Response [3]: 0.1071 and 0.0812 | RMax [4]: 0.124 and 0.1621 | Response [4]: 0.1223 and 0.1621 | RMax [5]: 0.165 and 0.1913 | Response [5]: 0.1623 and 0.1913 | RMax [6]: 0.251 and 0.2843 | Req/Rmax(%) [6]: 89% | Response [6]: 0.2461 and 0.2843 | RMax [7]: 0.435 and 0.3712 | Response [7]: 0.4312 and 0.3712 | RMax [8]: 0.553 and 0.5072 | Req/Rmax(%) [8]: 98% | Response [8]: 0.5523 and 0.5072 | koff (read-out: kdis(1/s), FAMA loaded on Anti-GST sensor, fit per sensor, Stomid Conc. (mM) 200-3.12, rep-1, rep-2): 0.179 s⁻¹ | kon (read-out: kon(1/Ms), FAMA loaded on Anti-GST sensor, fit per sensor, Stomid Conc. (mM) 200-3.12, rep-1, rep-2): 2070 M⁻¹ s⁻¹
